From US20260285853A1, “COMPOUNDS AND METHODS FOR MODULATING SPLICING” (REMIX THERAPEUTICS INC., priority 2023, published 2026)
Read-outs that look alike come from different tables or passages of the source.

What was measured:
Format in all cases: cell-based
MYB mRNA [1] = test: Gene panel canonical junction qPCR assay, decrease in CJ mRNA, Table 3
In short: (§1)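 A673 (DMEM, 10% FBS, 15,000 cells/well) or K562 (IMDM, 10% FBS) cells treated 24 h at 37 °C with 11-point 3-fold dilutions, top 10 uM, DMSO ≤0.25%. Canonical exon-exon junction mRNA measured by RT-qPCR, normalized to GAPDH, GUSB or PPIA and DMSO (ΔΔCt); IC50 from 4-parameter logistic fit.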

HTT mRNA [2] = test: as above
In short: as §1

HTT mRNA [3] = test: Splicing RT-qPCR assay (THP), Table 2A
[4] = tested on: SH-SY5Y (human neuroblastoma) cells; test: Cell viability, Cell Titer Glo 2.0 assay; settings: read-out: Viability SHSY5Y.3 GI50
In short: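 Toxicity screen in SH-SY5Y cells. Compounds were serially diluted in DMSO and then in medium, giving 0.1% DMSO final. Viability was read with CellTiter-Glo 2.0 after 72 h at 37 °C, 5% CO2, against medium-only blank wells.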

MYB mRNA [5] = test: Splicing RT-qPCR assay (THP), Table 2A
[6] = decrease in CJ mRNA levels, canonical junction qPCR, gene panel
[7] = Table 2A, THP, HTT alternative junction (AJ) mRNA, read-out: HTT AJ (AC50, increase in alternative junction mRNA)
[8] = Table 2A, THP, HTT canonical junction (CJ) mRNA, read-out: HTT CJ (IC50, decrease in canonical junction mRNA)
[9] = Table 2A, THP, MYB alternative junction (AJ) mRNA, read-out: MYB AJ (AC50, increase in alternative junction mRNA)
[10] = Table 2A, THP, MYB canonical junction (CJ) mRNA, read-out: MYB CJ (IC50, decrease in canonical junction mRNA)
[11] = decrease in canonical junction (CJ) mRNA, gene panel qPCR, Table 3
[12] = Table 2A (THP), AJ mRNA increase, read-out: HTT AJ (increase in alternative junction mRNA, AC50)
[13] = Table 2A (THP), CJ mRNA decrease, read-out: HTT CJ (decrease in canonical junction mRNA, IC50)
[14] = Table 2A (THP), AJ mRNA increase, read-out: MYB AJ (increase in alternative junction mRNA, AC50)
[15] = Table 2A (THP), CJ mRNA decrease, read-out: MYB CJ (decrease in canonical junction mRNA, IC50)

Structure (SMILES) | IC50 (MYB mRNA [1]; [6]) [µM] | IC50 (HTT mRNA [2]; [6]) [µM] | IC50 (HTT mRNA [3]; [8]) [µM] | GI50 [4] [µM] | IC50 (MYB mRNA [5]; [10]) [µM] | IC50 (MYB mRNA [1]; [11]) [µM] | IC50 (HTT mRNA [2]; [11]) [µM] | IC50 (HTT mRNA [3]; [13]) [µM] | IC50 (MYB mRNA [5]; [15]) [µM] | AC50 (HTT mRNA [3]; [7]) [µM] | AC50 (MYB mRNA [5]; [9]) [µM] | AC50 (HTT mRNA [3]; [12]) [µM] | AC50 (MYB mRNA [5]; [14]) [µM]
CCNCC1CCN(c2cc(F)c(C(=O)Nc3cn4cc(C)nc(C)c4n3)c3nn(C)cc23)C1 (stereo not drawn) [Compound 471, N-(6,8-dimethylimidazo-[1,2-a]-pyrazin-2-yl)-4-(3-[(ethylamino)methyl]-pyrrolidin-1-yl)-6-fluoro-2-methyl-indazole-7-carboxamide] |  |  |  | 1 to 10 |  | 0.1 to 1 | > 10 | > 10 | 0.1 to 1 |  |  | > 10 | 0.1 to 1
CCNC1CCN(c2cc(F)c(C(=O)Nc3cn4cc(C)nc(CC)c4n3)c3nn(C)cc23)CC1 [Compound 362, 4-[4-(ethylamino)-1-piperidyl]-N-(8-ethyl-6-methyl-imidazo[1,2-a]pyrazin-2-yl)-6-fluoro-2-methyl-indazole-7-carboxamide] |  |  |  | 1 to 10 |  | 0.1 to 1 | > 10 | > 10 | 0.1 to 1 |  |  | > 10 | < 0.1
Cc1cn2cc(NC(=O)c3ccc(N4CCC(NC5CC5)CC4)n4nc(C)nc34)cc(F)c2n1 [Compound 640, 5-[4-(cyclopropylamino)-1-piperidyl]-N-(8-fluoro-2-methyl-imidazo[1,2-a]pyridin-6-yl)-2-methyl-[1,2,4]-triazolo[1,5-a]-pyridine-8-carboxamide] | < 0.1 | 0.1 to 1 | 0.1 to 1 | 0.1 to 1 | < 0.1 |  |  |  |  | 0.1 to 1 | < 0.1 |  | 
COc1nc2c(C(=O)Nc3cc(F)c4nn(C)cc4c3)ccc(N3CCN4CCCC[C@H]4C3)c2s1 [Compound 746] | 0.1 to 1 | 0.1 to 1 | 0.1 to 1 | 0.1 to 1 | 0.1 to 1 |  |  |  |  | 0.1 to 1 | < 0.1 |  | 
COc1nc2c(C(=O)Nc3cc(CNS(C)(=O)=O)c4nn(C)cc4c3)ccc(N3C[C@H](C)N[C@@H](C)C3)c2s1 [Compound 731, 7-((3S,5S)-3,5-dimethylpiperazin-1-yl)-2-methoxy-N-(2-methyl-7-(methylsulfonamidomethyl)-2H-indazol-5-yl)benzo[d]thiazole-4-carboxamide 2,2,2-trifluoroacetate] | 0.1 to 1 | > 10 | > 10 | 1 to 10 | 0.1 to 1 |  |  |  |  | > 10 | 0.1 to 1 |  | 
CCNC1CCN(c2ccc(C(=O)Nc3cc(Oc4ccccc4C)c4nc(C)cn4c3)c3nn(C)cc23)CC1 [Compound 316, 4-[4-(ethylamino)-1-piperidyl]-2-methyl-N-[2-methyl-8-(2-methylphenoxy)imidazo[1,2-a]pyridin-6-yl]indazole-7-carboxamide] |  |  |  | 1 to 10 |  | 1 to 10 | > 10 | > 10 | 1 to 10 |  |  | > 10 | > 10

Continued, in another order:

IC50 (MYB mRNA [1]; [6]) [µM] | IC50 (HTT mRNA [2]; [6]) [µM] | IC50 (HTT mRNA [3]; [8]) [µM] | GI50 [4] [µM] | IC50 (MYB mRNA [5]; [10]) [µM] | IC50 (MYB mRNA [1]; [11]) [µM] | IC50 (HTT mRNA [2]; [11]) [µM] | IC50 (HTT mRNA [3]; [13]) [µM] | IC50 (MYB mRNA [5]; [15]) [µM] | Structure (SMILES) | AC50 (HTT mRNA [3]; [7]) [µM] | AC50 (MYB mRNA [5]; [9]) [µM] | AC50 (HTT mRNA [3]; [12]) [µM] | AC50 (MYB mRNA [5]; [14]) [µM]
> 10 | > 10 | > 10 | > 10 | > 10 |  |  |  |  | Cc1cn2cc(NC(=O)c3ccc(N4C[C@@H](C)N[C@@H](C)C4)c4c3OC(F)(F)O4)cc(F)c2n1 [Compound 651, 7-[(3R,5S)-3,5-dimethylpiperazin-1-yl]-2,2-difluoro-N-(8-fluoro-2-methylimidazo[1,2-a]-pyridin-6-yl)-1,3-benzodioxole-4-carboxamide] | > 10 | > 10 |  | 
 |  |  | > 10 |  | > 10 | > 10 | > 10 | > 10 | COc1cc2n[nH]cc2cc1NC(=O)c1c(F)cc(N2CCC(NC3CC3)CC2)c2cn(C)nc12 [Compound 449, 4-[4-(cyclopropylamino)-1-piperidyl]-6-fluoro-N-(6-methoxy-2H-indazol-5-yl)-2-methyl-indazole-7-carboxamide] |  |  | > 10 | > 10
 |  |  | 0.1 to 1 |  | 0.1 to 1 | 0.1 to 1 | 0.1 to 1 | 0.1 to 1 | Cc1cn2cc(NC(=O)c3ccc(OC4CCNCC4)c4cn(C)nc34)nc2c(C)n1 [Compound 565] |  |  | 0.1 to 1 | 0.1 to 1
